Reference: patent US10092620B2, “Uses of cyclic peptides for treating and preventing atherosclerosis” (THE SCRIPPS RESEARCH INSTITUTE, priority 2013, dated 2018)
Non-standard residues stand in square brackets, D forms with d. Aoc(2) = CCCCCC[C@H](N)C(=O)O; dOrn = NCCC[C@@H](N)C(=O)O; Orn = NCCC[C@H](N)C(=O)O

tested on: HDL in human plasma; assay: pre-beta HDL ELISA assay: remodeling HDL in human plasma in vitro; type: biochemical; conditions: not given
Description: First, various cyclic peptides, including the majority of compounds shown in FIG. 2, were assessed for activities for remodeling HDL in human plasma in vitro. Unlike western blot which was used to generate data shown in FIG. 2, here a pre-beta HDL ELISA assay was used to measure pre-beta HDL levels. Results from the assay are shown in Table 1, which lists the peptides in the order of their activities in remodeling HDL.

“c[WIWrEqEr] (cyclo(WIW[dR]E[dQ]E[dR]); SMILES CC[C@H](C)[C@@H]1NC(=O)[C@H](Cc2c[nH]c3ccccc23)NC(=O)[C@@H](CCCNC(=N)N)NC(=O)[C@H](CCC(=O)O)NC(=O)[C@@H](CCC(N)=O)NC(=O)[C@H](CCC(=O)O)NC(=O)[C@@H](CCCNC(=N)N)NC(=O)[C@H](Cc2c[nH]c3ccccc23)NC1=O) [SEQ ID NO:50]” was tested, and the “activity in generating pre-beta HDL (in words)” value was “excellent activities in generating plasma pre-beta HDL”.
In the case of “c[fWwYtRhS] (cyclo([dF]W[dW]Y[dT]R[dH]S); SMILES C[C@H](O)[C@H]1NC(=O)[C@H](Cc2ccc(O)cc2)NC(=O)[C@@H](Cc2c[nH]c3ccccc23)NC(=O)[C@H](Cc2c[nH]c3ccccc23)NC(=O)[C@@H](Cc2ccccc2)NC(=O)[C@H](CO)NC(=O)[C@@H](Cc2c[nH]cn2)NC(=O)[C@H](CCCNC(=N)N)NC1=O) [SEQ ID NO:51]”, the “activity in generating pre-beta HDL (in words)” value is reported as “excellent activities in promoting generation of pre-beta HDL”.

same assay, conditions: pre-beta HDL ELISA

In order of falling “Pre-beta HDL generated (normalized level)” value:
1. 5 (cyclo([dF]W[dW]Y[dQ]H[dH]Q); SMILES NC(=O)CC[C@@H]1NC(=O)[C@@H](Cc2c[nH]cn2)NC(=O)[C@H](Cc2c[nH]cn2)NC(=O)[C@@H](CCC(N)=O)NC(=O)[C@H](Cc2ccc(O)cc2)NC(=O)[C@@H](Cc2c[nH]c3ccccc23)NC(=O)[C@H](Cc2c[nH]c3ccccc23)NC(=O)[C@@H](Cc2ccccc2)NC1=O) [compound 5]  1.29
2. 48 (cyclo([dW]F[dY]Y[dH][Orn][dR]S); SMILES N=C(N)NCCC[C@H]1NC(=O)[C@H](CCCN)NC(=O)[C@@H](Cc2c[nH]cn2)NC(=O)[C@H](Cc2ccc(O)cc2)NC(=O)[C@@H](Cc2ccc(O)cc2)NC(=O)[C@H](Cc2ccccc2)NC(=O)[C@@H](Cc2c[nH]c3ccccc23)NC(=O)[C@H](CO)NC1=O) [compound 48]  0.70
3. 50 (cyclo(WIW[dR]E[dQ]E[dR]); SMILES CC[C@H](C)[C@@H]1NC(=O)[C@H](Cc2c[nH]c3ccccc23)NC(=O)[C@@H](CCCNC(=N)N)NC(=O)[C@H](CCC(=O)O)NC(=O)[C@@H](CCC(N)=O)NC(=O)[C@H](CCC(=O)O)NC(=O)[C@@H](CCCNC(=N)N)NC(=O)[C@H](Cc2c[nH]c3ccccc23)NC1=O) [compound 50]  0.54
4. 9 (cyclo([dW]L[dW]R[dD]N[dD]K); SMILES CC(C)C[C@@H]1NC(=O)[C@@H](Cc2c[nH]c3ccccc23)NC(=O)[C@H](CCCCN)NC(=O)[C@@H](CC(=O)O)NC(=O)[C@H](CC(N)=O)NC(=O)[C@@H](CC(=O)O)NC(=O)[C@H](CCCNC(=N)N)NC(=O)[C@@H](Cc2c[nH]c3ccccc23)NC1=O) [compound 9]  0.47
5. 13 (cyclo([dW]L[dW][Orn][dE]Q[dE][Orn]); SMILES CC(C)C[C@@H]1NC(=O)[C@@H](Cc2c[nH]c3ccccc23)NC(=O)[C@H](CCCN)NC(=O)[C@@H](CCC(=O)O)NC(=O)[C@H](CCC(N)=O)NC(=O)[C@@H](CCC(=O)O)NC(=O)[C@H](CCCN)NC(=O)[C@@H](Cc2c[nH]c3ccccc23)NC1=O) [compound 13]  0.46
6. 40 (cyclo([dW]L[dW]S[dE]Q[dH]K); SMILES CC(C)C[C@@H]1NC(=O)[C@@H](Cc2c[nH]c3ccccc23)NC(=O)[C@H](CCCCN)NC(=O)[C@@H](Cc2c[nH]cn2)NC(=O)[C@H](CCC(N)=O)NC(=O)[C@@H](CCC(=O)O)NC(=O)[C@H](CO)NC(=O)[C@@H](Cc2c[nH]c3ccccc23)NC1=O) [compound 40]  0.40
7. 26 (cyclo([dW]L[dL][dW]K[dD]D[dK]); not fully specified (residues 5, 7)) [compound 26]  0.36
8. 55 (cyclo(L[dW]L[dW]L[dS]E[dK]); SMILES CC(C)C[C@@H]1NC(=O)[C@@H](Cc2c[nH]c3ccccc23)NC(=O)[C@H](CC(C)C)NC(=O)[C@@H](Cc2c[nH]c3ccccc23)NC(=O)[C@H](CC(C)C)NC(=O)[C@@H](CCCCN)NC(=O)[C@H](CCC(=O)O)NC(=O)[C@@H](CO)NC1=O) [compound 55]  0.35
9. 8 (cyclo([dW]L[dW]K[dD]N[dD]K); SMILES CC(C)C[C@@H]1NC(=O)[C@@H](Cc2c[nH]c3ccccc23)NC(=O)[C@H](CCCCN)NC(=O)[C@@H](CC(=O)O)NC(=O)[C@H](CC(N)=O)NC(=O)[C@@H](CC(=O)O)NC(=O)[C@H](CCCCN)NC(=O)[C@@H](Cc2c[nH]c3ccccc23)NC1=O) [compound 8]  0.26
10. 59 (cyclo([dW]Y[dW]Y[dS]R[dS][dS]); SMILES N=C(N)NCCC[C@@H]1NC(=O)[C@@H](CO)NC(=O)[C@H](Cc2ccc(O)cc2)NC(=O)[C@@H](Cc2c[nH]c3ccccc23)NC(=O)[C@H](Cc2ccc(O)cc2)NC(=O)[C@@H](Cc2c[nH]c3ccccc23)NC(=O)[C@@H](CO)NC(=O)[C@@H](CO)NC1=O) [compound 59]  0.24
11. c[wLwKeNeK] (cyclo([dW]L[dW]K[dE]N[dE]K); SMILES CC(C)C[C@@H]1NC(=O)[C@@H](Cc2c[nH]c3ccccc23)NC(=O)[C@H](CCCCN)NC(=O)[C@@H](CCC(=O)O)NC(=O)[C@H](CC(N)=O)NC(=O)[C@@H](CCC(=O)O)NC(=O)[C@H](CCCCN)NC(=O)[C@@H](Cc2c[nH]c3ccccc23)NC1=O) [SEQ ID NO:11]  0.24
12. 25 (cyclo([dY]W[dY]K[dS]H[dA]E); SMILES C[C@H]1NC(=O)[C@H](Cc2c[nH]cn2)NC(=O)[C@@H](CO)NC(=O)[C@H](CCCCN)NC(=O)[C@@H](Cc2ccc(O)cc2)NC(=O)[C@H](Cc2c[nH]c3ccccc23)NC(=O)[C@@H](Cc2ccc(O)cc2)NC(=O)[C@H](CCC(=O)O)NC1=O) [compound 25]  0.19
13. 23 (cyclo([dW]L[dW]R[dE]N[dE][Orn]); SMILES CC(C)C[C@@H]1NC(=O)[C@@H](Cc2c[nH]c3ccccc23)NC(=O)[C@H](CCCN)NC(=O)[C@@H](CCC(=O)O)NC(=O)[C@H](CC(N)=O)NC(=O)[C@@H](CCC(=O)O)NC(=O)[C@H](CCCNC(=N)N)NC(=O)[C@@H](Cc2c[nH]c3ccccc23)NC1=O) [compound 23]  0.16
14. 66 (cyclo([dW][benzyltyrosine][dK]N[dN]K[dK]K); ring closure inferred) [compound 66]  0.10
15. 2 (cyclo([dW]L[dW]K[dD]Q[dE]K); SMILES CC(C)C[C@@H]1NC(=O)[C@@H](Cc2c[nH]c3ccccc23)NC(=O)[C@H](CCCCN)NC(=O)[C@@H](CCC(=O)O)NC(=O)[C@H](CCC(N)=O)NC(=O)[C@@H](CC(=O)O)NC(=O)[C@H](CCCCN)NC(=O)[C@@H](Cc2c[nH]c3ccccc23)NC1=O) [compound 2]  0.10
16. 17 (cyclo(Y[dW]D[dS]K[dH]); SMILES NCCCC[C@@H]1NC(=O)[C@@H](CO)NC(=O)[C@H](CC(=O)O)NC(=O)[C@@H](Cc2c[nH]c3ccccc23)NC(=O)[C@H](Cc2ccc(O)cc2)NC(=O)[C@@H](Cc2c[nH]cn2)NC1=O) [compound 17]  0.08
17. 34 (cyclo([dY]D[dY]W[dY]H[dA]K); not fully specified (residues 2, 4, 6, 8)) [compound 34]  0.08
18. 20 (cyclo([dW]L[dL]E[dE]K[dK]N); SMILES CC(C)C[C@@H]1NC(=O)[C@@H](Cc2c[nH]c3ccccc23)NC(=O)[C@H](CC(N)=O)NC(=O)[C@@H](CCCCN)NC(=O)[C@H](CCCCN)NC(=O)[C@@H](CCC(=O)O)NC(=O)[C@H](CCC(=O)O)NC(=O)[C@@H](CC(C)C)NC1=O) [compound 20]  0.07
19. 69 (cyclo([dL]W[dL]H[dE]K[dK]H); SMILES CC(C)C[C@H]1NC(=O)[C@H](Cc2c[nH]cn2)NC(=O)[C@@H](CCCCN)NC(=O)[C@H](CCCCN)NC(=O)[C@@H](CCC(=O)O)NC(=O)[C@H](Cc2c[nH]cn2)NC(=O)[C@@H](CC(C)C)NC(=O)[C@H](Cc2c[nH]c3ccccc23)NC1=O) [compound 69]  0.07
20. 70 (cyclo(L[dL]W[dL]K[dK]K[dK]); SMILES CC(C)C[C@@H]1NC(=O)[C@@H](CCCCN)NC(=O)[C@H](CCCCN)NC(=O)[C@@H](CCCCN)NC(=O)[C@H](CCCCN)NC(=O)[C@@H](CC(C)C)NC(=O)[C@H](Cc2c[nH]c3ccccc23)NC(=O)[C@@H](CC(C)C)NC1=O) [compound 70]  0.06
21. w(Aoc)wReQeR (cyclo([dW][Aoc(2)][dW]R[dE]Q[dE]R); ring closure inferred) [SEQ ID NO:31]  0.04
22. 74 (cyclo([dF]F[dY]F[dK]K); SMILES NCCCC[C@@H]1NC(=O)[C@@H](CCCCN)NC(=O)[C@H](Cc2ccccc2)NC(=O)[C@@H](Cc2ccc(O)cc2)NC(=O)[C@H](Cc2ccccc2)NC(=O)[C@@H](Cc2ccccc2)NC1=O) [compound 74]  0.04
23. 76 (cyclo([dL]W[dL]K[dK]K[dH]R); SMILES CC(C)C[C@H]1NC(=O)[C@H](CCCNC(=N)N)NC(=O)[C@@H](Cc2c[nH]cn2)NC(=O)[C@H](CCCCN)NC(=O)[C@@H](CCCCN)NC(=O)[C@H](CCCCN)NC(=O)[C@@H](CC(C)C)NC(=O)[C@H](Cc2c[nH]c3ccccc23)NC1=O) [compound 76]  0.03
24. 35 (cyclo([dW]L[dW]R[dE]Q[dE][Orn]); SMILES CC(C)C[C@@H]1NC(=O)[C@@H](Cc2c[nH]c3ccccc23)NC(=O)[C@H](CCCN)NC(=O)[C@@H](CCC(=O)O)NC(=O)[C@H](CCC(N)=O)NC(=O)[C@@H](CCC(=O)O)NC(=O)[C@H](CCCNC(=N)N)NC(=O)[C@@H](Cc2c[nH]c3ccccc23)NC1=O) [compound 35]  0.02
25. 77 (cyclo(W[dF]E[dL]Y[dS]H[dOrn]); ring closure inferred) [compound 77]  0.02
26. 79 (cyclo([dW]L[dK]S[dK]S[dK]S); SMILES CC(C)C[C@@H]1NC(=O)[C@@H](Cc2c[nH]c3ccccc23)NC(=O)[C@H](CO)NC(=O)[C@@H](CCCCN)NC(=O)[C@H](CO)NC(=O)[C@@H](CCCCN)NC(=O)[C@H](CO)NC(=O)[C@@H](CCCCN)NC1=O) [compound 79]  0.01
